According to patent US12427134B2, “Methods of reducing the risk of cardiovascular events in a subject with atrial fibrillation and/or atrial flutter” (priority 2019, dated 2025):

Tested on: hypertriglyceridemic patients with cardiovascular disease or at high risk for cardiovascular disease
Settings: human, in vivo
Source text: Compliance Control: Unless clear contraindications arise, patients were strongly encouraged to adhere to their treatment regimen with the study drug for the duration of the trial. Any interruptions of therapy were, if possible, brief (e.g., <4 weeks) and only for clinically indicated reasons, such as adverse events. Discontinuations were discouraged as much as possible. Any discontinuations were based on compelling clinical reasons. For every patient, an assessment of compliance to the study drug treatment regimen was obtained at each scheduled visit. Study medication was dispensed in amounts exceeding the amount required for the study. Patients were instructed to return all unused study medication at the next visit. Compliance to the study drug regimen was evaluated at each visit by counting unused capsules. Discrepancies were evaluated and discussed with each patient to assess compliance. […] At the end of the study, the final study medication compliance was determined by unused capsule count. […]
Occurrence of an outcome event according to the judgment of the investigator was not considered a valid reason for study drug discontinuation. Patients whose treatment with study medication was discontinued early, and had not withdrawn consent, stayed in the study and were monitored until the end of the study. […]

SMILES: CC/C=C\C/C=C\C/C=C\C/C=C\C/C=C\CCCC(=O)OCC [AMR101, eicosapentaenoic acid ethyl ester]
- Early study drug discontinuation: adverse event: 9.2%
